Consider eight compounds from patent US20110306541A1, “METHODS FOR TREATING HCV” (priority 2010, published 2011).

One may read the EC50 as the concentration giving half of the maximal effect. The low end stands for an effect from little substance, the high end for a need for much substance. A word on the AUC: it is concentration integrated over time.

Structures are written as SMILES.

Data set [1] is described as follows: Drug-drug interaction on co-administration. In kind it is in vivo.
A further data set relates to HCV 1b replicon. As to the kind of experiment: Renilla luciferase (RLuc)-based HCV replicon reporter assay - HCV 1b RLuc. In kind it is cell-based. To be noted: Hepatitis C virus; Table I; HCV 1b RLuc replicon. In general terms: Replicon systems follow genome replication, usually without infectious particles.
Data set [2] in a line: Exposure (AUC) corresponding to dose. Format: in vivo, human. To be noted: for AUC: human, in vivo.
Data set [3] in a line: Bilirubin elevations related to dose of Compound 3. Format: in vivo, human. The settings on record: doses above 400 mg.

In the case of `Fc1ccccc1-c1nc2ccn(Cc3ccc(-c4ccc(C(F)(F)F)cc4C(F)(F)F)nn3)cc-2n1` [Compound 1, 5-((6-(2,4-bis(trifluoromethyl)phenyl)pyridazin-3-yl)methyl)-2-(2-fluorophenyl)-5H-imidazo[4,5-c]pyridine], in data set [1] (co-administered with Compound 2), the “increase of the exposure of Compound 1” value was 2-3 ×. Further, the “effect on drug metabolizing systems” value in data set [1] (in vivo) was “it does not appear that Compound 1 affects drug metabolizing systems”.
As to `COC(=O)N[C@H](C(=O)N1CCC[C@H]1c1ncc(-c2cc3cc4sc(-c5cnc([C@@H]6CCCN6C(=O)[C@@H](NC(=O)OC)C(C)C)[nH]5)cc4cc3s2)[nH]1)C(C)C`, the half-maximal effective concentration (EC50) with HCV 1b replicon is 7.7 pM. This lies in the picomolar range.
For `CC[C@@H]1C[C@]1(NC(=O)[C@@H]1C[C@@H](Oc2cc(-c3csc(NC(C)C)n3)nc3c(Cl)c(OCCN4CCOCC4)ccc23)CN1C(=O)[C@@H](NC(=O)O[C@@H]1C[C@@H]2C[C@@H]2C1)C(C)(C)C)C(=O)O` [Compound 3], the AUC in data set [2] (10 mg dose) worked out at 0.272 µg·h/mL; in data set [2] (1000 mg dose), 48.4 µg·h/mL. In data set [3], the bilirubin elevations entry is on record as “more bilirubin elevations in some cases”.
`COC(=O)NC(C(=O)N1CC2(CC2)CC1c1ncc(-c2ccc3c(c2)C(F)(F)c2cc(-c4ccc5nc(C6C7CCC(C7)N6C(=O)C(NC(=O)OC)C(C)C)[nH]c5c4)ccc2-3)[nH]1)C(C)C` (stereo not drawn) [Compound 16, (1-{3-[6-(9,9-Difluoro-7-{2-[5-(2-methoxycarbonylamino-3-methyl-butyryl)-5-aza-spiro[2.4]hept-6-yl]-3H-imidazol-4-yl}-9H-fluoren-2-yl)-1H-benzoimidazol-2-yl]-2-aza-bicyclo[2.2.1]heptane-2-carbonyl}-2-methyl-propyl)-carbamic acid methyl ester]: the exposure came to 0.0323 µg·h/mL in data set [2] (3 mg dose); 1.4152 µg·h/mL in data set [2] (30 mg dose); 4.1379 µg·h/mL in data set [2] (90 mg dose); 11.1666 µg·h/mL in data set [2] (100 mg dose); 38.9 µg·h/mL in data set [2] (300 mg dose).
The compound `COC(=O)N[C@H](C(=O)N1CCC[C@H]1c1ncc(C#CC2=CC3SC(c4cnc([C@@H]5CCCN5C(=O)[C@@H](NC(=O)OC)C(C)C)[nH]4)=CC3S2)[nH]1)C(C)C` (stereo partly drawn) returned an EC50 in the data set with HCV 1b replicon of 50.3 pM.
Still for that read-out and setting: under `COC(=O)N[C@H](C(=O)N1CCC[C@H]1c1ncc(-c2ccc3cc(-c4ccc(-c5cnc([C@@H]6CCCN6C(=O)[C@H](NC(=O)OC)c6ccccc6)[nH]5)cc4)ccc3c2)[nH]1)C(C)C` stands 8.1 pM.
On the same count and under the same terms, next, `COC(=O)N[C@H](C(=O)N1CCC[C@H]1c1nc(C#Cc2ccc3cc(-c4cnc([C@@H]5CC(F)(F)CN5C(=O)[C@@H](NC(=O)OC)C(C)C)[nH]4)ccc3c2)c[nH]1)C(C)C`: 14.7 pM.
Compound `COC(=O)N[C@H](C(=O)N1CCC[C@H]1c1ncc(-c2ccc3cc4cc(-c5cnc([C@@H]6CCCN6C(=O)[C@@H](NC(=O)OC)C(C)C)[nH]5)ccc4cc3c2)[nH]1)C(C)C` came in with an EC50 with HCV 1b replicon of 7 pM.
